Test results: patent publication US11234979B2, “Heteroaryl compounds as muscarinic M1 receptor positive allosteric modulators” (SUVEN LIFE SCIENCES LIMITED, priority 2017, dated 2022)

What was measured:
[1] = molecular target: T1, recombinant human Muscarinic M1 receptor (Homo sapiens, UniProt P11229); assay: Allosteric potency EC50 for Muscarinic M1 receptor, CHO pCRE-Luc reporter assay with EC20 of acetylcholine; format: cell-based; details: CHO cells, in presence of EC20 of acetylcholine, 4 hours
T1 construct: expressed in transfected cells
T1 sequence (P11229 1-460): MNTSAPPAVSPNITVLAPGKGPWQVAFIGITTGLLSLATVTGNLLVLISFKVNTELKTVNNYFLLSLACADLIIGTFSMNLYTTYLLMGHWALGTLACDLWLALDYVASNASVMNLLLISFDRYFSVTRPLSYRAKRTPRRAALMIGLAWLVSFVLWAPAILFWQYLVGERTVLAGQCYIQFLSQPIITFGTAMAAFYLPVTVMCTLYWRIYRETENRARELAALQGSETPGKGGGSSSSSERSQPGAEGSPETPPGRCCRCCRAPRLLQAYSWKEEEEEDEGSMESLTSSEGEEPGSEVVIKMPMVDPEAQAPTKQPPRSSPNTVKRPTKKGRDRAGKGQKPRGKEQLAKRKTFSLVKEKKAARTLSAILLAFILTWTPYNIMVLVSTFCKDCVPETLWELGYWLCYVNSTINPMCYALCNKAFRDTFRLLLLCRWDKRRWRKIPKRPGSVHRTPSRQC
Outline: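 Stable CHO line expressing human M1 receptor with CRE-driven luciferase, serum-starved overnight, then exposed to increasing compound concentrations plus an EC20 of acetylcholine in OptiMEM for 4 hours at 37° C. Luciferase read after lysis, normalized to maximal acetylcholine response; EC50 is concentration giving 50% stimulation.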

[2] = Rodent pharmacokinetic study; format: in vivo, Male Wistar rats; details: male, Wistar, rat, plasma
Method: Rodent Pharmacokinetic Study
Male Wistar rats (260±50 grams) were used as experimental animals. Animals were housed individually in polypropylene cage. Two days prior to study, male Wistar rats were anesthetized with isoflurane for surgical placement of jugular vein catheter. Rats were randomly divided for oral (3 mg/kg) and intravenous (i.v) (1 mg/kg) dosing (n=3/group) and fasted overnight before oral dosing (p.o.). However, rats allocated to intravenous (i.v.) dosing food and water was provided ad libitum.
At pre-determined point, blood was collected through jugular vein and replenished with an equivalent volume of normal saline. Collected blood was transferred into a labeled eppendorf tube containing 10 μL of heparin as an anticoagulant. Typically blood samples were collected at following time points: 0.08, 0.25, 0.5, 1, 2, 4, 6, 8, and 24 hours post dose. Blood was centrifuged at 4000 rpm for 10 minutes. Plasma was separated and stored frozen at −80° C. until analysis. The concentrations of the test compounds were quantified in plasma by qualified LC-MS/MS method using suitable extraction technique. The test compounds were quantified in the calibration range around 1-1000 ng/mL in plasma. Study samples were analyzed using calibration samples in the batch and quality control samples spread across the batch.
Pharmacokinetic parameters Cmax, AUCt, T1/2, clearance and bioavailability (F) were calculated by non-compartmental model using standard non-compartmental model by using Phoenix WinNonlin 6.0.2 or 6.0.3 version Software package.

[3] = Rodent brain penetration study; format: in vivo, Male Wistar rats; details: male, Wistar, brain and plasma, po; rat, 3 mg/kg, p.o. @ 1.0 hr, brain-plasma ratio; read-out: Single dose Rat Brain Penetration (Cb/Cp)
Method: Rodent Brain Penetration Study
Male Wistar rats (260±40 grams) were used as experimental animals. Three animals were housed in each cage. Animals were given water and food ad libitum throughout the experiment and maintained on a 12 hours light/dark cycle.
Brain penetration was determined in discrete manner in rats. One day prior to dosing day, male Wistar rats were acclimatized and randomly grouped according to their weight. At each time point (0.5, 1 and 2 hours) n=3 animals were used.
The test compounds were suitably preformulated and administered orally at (free base equivalent) 3 mg/kg. Blood samples were removed via cardiac puncture by using isoflurane anesthesia. The animals were sacrificed to collect brain tissue. Plasma was separated and brain samples were homogenized and stored frozen at −20° C. until analysis. The concentrations of the test compounds in plasma and brain were determined using LC-MS/MS method.
The test compounds were quantified in plasma and brain homogenate by qualified LC-MS/MS method using suitable extraction technique. The test compounds were quantified in the calibration range of 1-500 ng/mL in plasma and brain homogenate. Study samples were analyzed using calibration samples in the batch and quality control samples spread across the batch.

`Cn1cc(-c2ccc(Cc3cc(C(=O)N[C@H]4CCCC[C@@H]4O)n4ncccc34)cc2)cn1` [Example 32, N-(cis-1S,2S-2-Hydroxycyclohexyl)-5-[4-(1-methyl-1H-pyrazol-4-yl)-benzyl]-pyrrolo [1,2-b]pyridazine-7-carboxamide] gave an EC50 [1] of 66 nM, an AUC(0-t) ([2]; iv, i.v. 1 mg/kg) of 3260 ± 802 ng·h/mL and a half-life ([2]; iv, i.v. 1 mg/kg) of 192 ± 72 min. For the same compound, the clearance ([2]; iv, i.v. 1 mg/kg) was 5.2 ± 1.4 mL/min/kg, the bioavailability ([2]; oral 3 mg/kg vs i.v. 1 mg/kg, bioavailability) was 50 ± 17% and the AUC(0-t) ([2]; oral 3 mg/kg) was 4900 ± 1640 ng·h/mL. For the same compound, the Cmax ([2]; oral 3 mg/kg) was 650 ± 224 ng/mL, the half-life ([2]; oral 3 mg/kg) was 192 ± 24 min and the Kp at 1 h [3] was 0.15 ± 0.02.
